Values quoted from earlier work as cited in patent US20090320148A1, “OXYLIPINS FROM STEARIDONIC ACID AND GAMMA-LINOLENIC ACID AND METHODS OF MAKING AND USING THE SAME” (MARTEK BIOSCIENCES CORPORATION, priority 2006, published 2009).

Columns and labels:
cell migration = details: comparison with the DHA-derived oxylipin

Molecule	secretion of the pro-inflammatory cytokine IL-1β (IL-1β)	reduction of IL-1β secretion compared with DHA oxylipin derivative and indomethacin (IL-1β; comparison with DHA oxylipin derivative and indomethacin)	potency for reduction in IL-1β secretion (IL-1β; comparison with the DHA oxylipin)	potency for inhibiting cell migration (cell migration)
10,17-dihydroxy DPAn-6	significantly reduced	significantly larger than with that produced by either the DHA oxylipin derivative or the general anti-inflammatory agent, indomethacin	more potent than the DHA oxylipin	–
CCCCCC(O)/C=C/C=C\C/C=C\C/C=C\C/C=C\CCC(=O)O (centres unmarked) [17-hydroxy DPAn-6]	significantly reduced	–	–	more potent than the DHA-derived oxylipin
